Measurements from US10813913B2, “Small molecules that mimic or antagonize actions of granulocyte colony-stimulating-factor (G-CSF)” (UNIVERSITY OF SOUTH FLORIDA, priority 2016, dated 2020).
Where “and” joins values, the source holds several entries; their conditions need not be identical. Equal values may be shown once. Entries after “also recorded” stand apart in the source; their conditions may differ. Values belong to the molecule of their own block, whether it stands above or below them.

Key:
[1] = tested on: PKCδVIII and Bcl2 expressed in SH-SY5Y neuronal cells; experiment: Western blot of PKCδVIII and Bcl2 in SH-SY5Y neuronal cells; format: cell-based, human; conditions: for effect on G-CSF-induced Bcl2 expression / effect on G-CSF-induced PKCδVIII expression / Bcl2 protein expression / PKCδVIII protein expression: SH-SY5Y, 24 h; for effect on G-CSF-induced Bcl2 expression / effect on G-CSF-induced PKCδVIII expression: co-incubation with G-CSF 100 ng/mL; for Bcl2 protein expression / PKCδVIII protein expression: compound alone, three concentrations; for agonist/antagonist profile at the G-CSF receptor: neuronal cell line (SH-SY5Y)
Description: (§1) THP-1 cells or SH-SY5Y cells 3×10^6 cells in 5 mL media in a 25 cm^2 flask were treated with 100 ng/mL G-CSF or three different concentrations of the test drug for 24 h. In addition, a set of flasks were co-incubated with the combination of G-CSF and 3 concentrations of test drug. Whole cell lysates ([…]) were separated on 10% polyacrylamide gel electrophoresis-SDS (PAGE-SDS). Proteins were electrophoretically transferred to nitrocellulose membranes, blocked with 5% nonfat milk prepared on Tris buffered saline containing 0.1% Tween 20, washed and incubated with a polyclonal antibody against either Bcl2 (Cell Signaling, Danvers, Mass.) or PKCδVIII-specific polyclonal antibody (Jiang, K., et al. Biochemistry 2008, 47, 787-797). The house keeping gene GAPDH was used as an internal standard. Following incubation with anti-rabbit IgG-HRP, enhanced chemiluminesence (Pierce™, Thermo Scientific, Walthahm, Mass.) was used for detection and the gels were analyzed using UN-SCAN-IT™ software (Silk Scientific, Inc., Orem, Utah).
(§2) Statistical analysis. Densitometric results from Western blots were analyzed with two-tailed t-tests when only two groups were compared. In other analyses where 3 groups were compared, one-way ANOVA followed by t-tests with Dunnett's corrections for multiple comparisons was utilized. All data was presented as mean±SEM. All statistical analysis of data was done via PRISM4 or PRISM5 statistical analysis software (GraphPad Prism, La Jolla, Calif.). Neurohistologic analyses are performed using ANOVA. All comparisons were considered significant at level of P<0.05.

[2] = target: T1, G-CSF receptor expressed on human monocytes (Homo sapiens, UniProt Q99062); experiment: Competition/displacement of [125I]-G-CSF from its receptor on monocytes; format: binding; conditions: monocytic cells
T1 construct: Both cell lines are known to express the G-CSF-R; host or cells: THP-1 (human monocytic cell line), intact cells
T1 sequence (Q99062 25-836): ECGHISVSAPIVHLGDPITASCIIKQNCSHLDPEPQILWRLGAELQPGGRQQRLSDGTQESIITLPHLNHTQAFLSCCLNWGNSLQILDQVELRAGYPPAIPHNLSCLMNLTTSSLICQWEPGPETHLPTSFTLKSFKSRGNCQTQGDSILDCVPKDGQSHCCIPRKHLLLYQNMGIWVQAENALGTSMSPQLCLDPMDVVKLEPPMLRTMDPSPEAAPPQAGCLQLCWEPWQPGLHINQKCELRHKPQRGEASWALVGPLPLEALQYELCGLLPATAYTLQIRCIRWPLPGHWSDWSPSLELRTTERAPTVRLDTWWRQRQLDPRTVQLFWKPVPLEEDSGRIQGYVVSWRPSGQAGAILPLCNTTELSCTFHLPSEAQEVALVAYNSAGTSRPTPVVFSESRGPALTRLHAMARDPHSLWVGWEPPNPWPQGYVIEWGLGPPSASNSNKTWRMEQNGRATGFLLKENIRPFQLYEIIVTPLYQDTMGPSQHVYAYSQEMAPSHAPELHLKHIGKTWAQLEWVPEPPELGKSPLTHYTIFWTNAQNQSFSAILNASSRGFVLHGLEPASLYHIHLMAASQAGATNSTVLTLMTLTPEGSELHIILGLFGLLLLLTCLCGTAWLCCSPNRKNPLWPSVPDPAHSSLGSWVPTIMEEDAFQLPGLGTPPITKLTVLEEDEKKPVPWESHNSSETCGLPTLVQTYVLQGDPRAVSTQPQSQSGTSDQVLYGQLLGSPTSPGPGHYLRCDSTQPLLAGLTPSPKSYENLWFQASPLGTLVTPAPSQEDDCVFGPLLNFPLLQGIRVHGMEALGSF
Description: Cells, prepared as described above, were incubated in 180 μL of binding medium containing 0.2% BSA, 5 mM MgSO4 and 50 mM Hepes, pH 7.2 at a concentration of 1.5×10^7 cells/mL and the appropriate concentration of [^125I]-G-CSF. This was followed by addition of increasing concentrations of each study compound (10 to 3000 nM). After 2 hrs of incubation, the amount of bound and free [^125I]-G-CSF was determined, as described above. […] Each concentration was analyzed in triplicate and experiments were repeated three times. These experiments were conducted in human monocytic and neuronal cell lines.
Displacement studies were then conducted for each of the 10 compounds. […] Compounds 6 and 10, which displaced greater than 75% of the ^125I-G-CSF, were further studied for their capacity to mimic or block the intracellular signaling triggered by the natural ligand.

[3] = tested on: PKCδVIII and Bcl2 expressed in THP-1 monocytic cells; experiment: Western blot of PKCδVIII and Bcl2 in THP-1 monocytic cells; format: cell-based, human; conditions: for effect on G-CSF-induced Bcl2 expression / effect on G-CSF-induced PKCδVIII expression: THP-1, co-incubation with G-CSF 100 ng/mL; for effect on G-CSF-induced Bcl2 expression / effect on G-CSF-induced PKCδVIII expression / Bcl2 protein expression / PKCδVIII protein expression: 24 h; for Bcl2 protein expression / PKCδVIII protein expression: THP-1, compound alone, three concentrations; for agonist/antagonist profile at the G-CSF receptor: monocytic cell line (THP-1)
Description: as §1, with “In” for “THP-1 cells or SH-SY5Y cells 3×10^6 cells in 5 mL media in a 25 cm^2 flask were treated with 100 ng/mL G-CSF or three different concentrations of the test drug for 24 h. In”
as §2

[4] = target: T2, G-CSF receptor on monocytic (THP-1) cells (Homo sapiens, UniProt Q99062); experiment: Saturation binding of [125I]-G-CSF to its receptor on THP-1 cells; conditions: [125I]-G-CSF specific binding
T2 construct: Both cell lines are known to express the G-CSF-R; host or cells: THP-1 (human monocytic cell line), intact cells
T2 sequence (Q99062 25-836): T1 sequence (Q99062 25-836)
From the text: (§3) Two human cell lines were chosen for cell culture studies. One was a human monocyte cell line that is representative of the peripheral immune system, THP-1, which grows in suspension. The other cell line was a human neuroblastoma cell line (SH-SY5Y) which is a mixed cell line although only adherent cells were utilized (Xie, H. R., et al. Chin. Med. J. (Engl) 2010, 123, 1086-92). Both cell lines are known to express the G-CSF-R. Both cell lines were purchased from ATCC (Manassas, Va.). THP-1 cells were cultured in RPMI-1640 medium supplemented with 10% fetal bovine serum (FBS) plus 1% penicillin-streptomycin (ATCC, Manassas, Va.) in a humidified atmosphere of 5% CO2 at 37° C. […]
(§4) Binding of [^125I]-G-CSF was measured using previously described method (Kondo, S., et al. Eur. J. Haematol. 1991, 46, 223-30) with some modifications (Pennington, A., et al. Alzheimer's Disease and Parkinsonism 2013, 3, 121). […] Nonspecific binding of [^125I]-G-CSF was measured by incubations in the presence of a 100-fold molar excess of unlabeled G-CSF. […] Bound and free ligand activities were counted after cutting tubes in two pieces and placing the tips and tops, respectively into separate scintillation vials. […] The specific binding was determined from the amount of bound [^125I]-G-CSF blocked by competition with excess unlabeled G-CSF. […]

[5] = target: T3, G-CSF receptor on neuronal (SH-SY5Y) cells (Homo sapiens, UniProt Q99062); experiment: Saturation binding of [125I]-G-CSF to its receptor on SH-SY5Y cells; conditions: [125I]-G-CSF specific binding
T3 construct: Both cell lines are known to express the G-CSF-R; host or cells: SH-SY5Y (human neuroblastoma cell line, adherent cells), intact cells
T3 sequence (Q99062 25-836): T1 sequence (Q99062 25-836)
From the text: as §3, §4

IC50 [2]: 13.7 nM
Molecule: COc1ccc2[nH]cc(C3NC(N)=Nc4nc5ccccc5n43)c2c1 (centres unmarked) [Compound 6, 4-(5-methoxy-1H-indol-3-yl)-3,4-dihydro-[1,3,5]-triazino-[1,2a]benzimidazol-2-amine]
effect on G-CSF-induced Bcl2 expression [1]: did not change the expression of either Bcl2 or PKCδVIII
effect on G-CSF-induced PKCδVIII expression [1]: did not change the expression of either Bcl2 or PKCδVIII
Bcl2 protein expression [1]: significantly increased Bcl2 protein expression at the low and intermediate, but not the high concentration; also recorded: at the highest concentration increases PKCδVIII without changing Bcl2 expression
PKCδVIII protein expression [1]: stimulated PKCδVIII protein expression to levels equivalent to G-CSF alone; also recorded: at the highest concentration increases PKCδVIII
agonist/antagonist profile at the G-CSF receptor [1]: did not act as an antagonist of G-CSF action; also recorded: appear to act as agonists at the G-CSF receptor
effect on G-CSF-induced Bcl2 expression [3]: blocked the increase in Bcl2 and PKCδVIII protein expression
effect on G-CSF-induced PKCδVIII expression [3]: blocked the increase in Bcl2 and PKCδVIII protein expression
Bcl2 protein expression [3]: increased expression of Bcl2
PKCδVIII protein expression [3]: but not PKCδVIII at all 3 concentrations
agonist/antagonist profile at the G-CSF receptor [3]: mixed agonist/antagonist

IC50 [2]: 2.3 nM
Molecule: NC1=Nc2nc3ccccc3n2C(c2c[nH]nc2-c2cccc([N+](=O)[O-])c2)N1 (centres unmarked) [Compound 10, 4-[3-(3-nitrophenyl)-1H-pyrazol-4-yl]-3,4-dihydro[1,3,5]triazino[1,2-a]-benzimidazol-2-amine]
effect on G-CSF-induced Bcl2 expression [1]: did not block the actions of G-CSF
effect on G-CSF-induced PKCδVIII expression [1]: did not block the actions of G-CSF
Bcl2 protein expression [1]: increased expression of both PKCδVIII and Bcl2 protein to levels equivalent to G-CSF alone
PKCδVIII protein expression [1]: increased expression of both PKCδVIII and Bcl2 protein to levels equivalent to G-CSF alone
agonist/antagonist profile at the G-CSF receptor [1]: appear to act as agonists at the G-CSF receptor; also recorded: appeared to function as a G-CSF agonist
effect on G-CSF-induced Bcl2 expression [3]: blocking the effects of G-CSF on Bcl2 expression; also recorded: at the lowest concentration antagonized the effects of G-CSF
effect on G-CSF-induced PKCδVIII expression [3]: did not antagonize the effects on PKCδVIII protein expression; also recorded: at the lowest concentration antagonized the effects of G-CSF
Bcl2 protein expression [3]: significantly elevating expression of both Bcl2 and PKCδVIII
PKCδVIII protein expression [3]: significantly elevating expression of both Bcl2 and PKCδVIII
agonist/antagonist profile at the G-CSF receptor [3]: mixed agonist/antagonist

Bmax [4]: 901 pM
Hill Coefficient [4]: 1.19
Bmax [5]: 4826 pM
Hill Coefficient [5]: 2.7 and 2.71
B1: [^125I]-G-CSF: radio-labeled G-CSF (specific activity 46.55 TBq/mmol) purchased from Perkin Elmer (protein)
chain: TPLGPASSLPQSFLLKCLEQVRKIQGDGAALQEKLVSECATYKLCHPEELVLLGHSLGIPWAPLSSCPSQALQLAGCLSQLHSGLFLYQGLLQALEGISPELGPTLDTLQLDVADFATTIWQQMEELGMAPALQPTQGAMPAFASAFQRRAGGVLVASHLQSFLEVSYRVLRHLAQP
modifications: 125I radiolabel (specific activity 46.55 TBq/mmol); labelled residue not stated
